According to article PMC12517401, “Design, synthesis, and antiproliferative activity of new 2-amino-pyrano[3,2-c]quinoline-3-carbonitriles as potential EGFR, BRAF^V600E, and HER-2 inhibitors” (RSC Advances, 2025):
Where two headings read alike, the source gives them in different places.

Tests used:
[1] = test system: pancreatic cancer (Panc-1); test: Antiproliferative assay, Panc-1; format: cell-based; settings: Homo sapiens; Panc-1 pancreatic cancer cell line; read-out: Antiproliferative activity IC50 ± SEM (nM) Panc-1
Experimental: (§1) 4.2.2. Assay for antiproliferative effect
(§2) To explore the antiproliferative potential of compounds propidium iodide fluorescence assay was performed using different cell lines such as Panc-1 (pancreas cancer cell line), MCF-7 (breast cancer cell line), HT-29 (colon cancer cell line) and A-549 (epithelial cancer cell line), respectively. To calculate the total nuclear DNA, a fluorescent dye (propidium iodide, PI) is used which can attach to the DNA, thus offering a quick and precise technique. PI cannot pass through the cell membrane and its signal intensity can be considered as directly proportional to quantity of cellular DNA. Cells whose cell membranes are damaged or have changed permeability are counted as dead ones. The assay was performed by seeding the cells of different cell lines at a density of 3000-7500 cells/well (in 200μl medium) in culture plates followed by incubation for 24h at 37 °C in humidified 5%CO2/95% air atmospheric conditions. The medium was removed; the compounds were added to the plates at 10 μM concentrations (in 0.1% DMSO) in triplicates, followed by incubation for 48h. DMSO (0.1%) was used as control. After incubation, medium was removed followed by the addition of PI (25 μl, 50μg/mL in water/medium) to each well of the plates. At -80 °C, the plates were allowed to freeze for 24 h, followed by thawing at 25 °C. A fluorometer (Polar-Star BMG Tech) was used to record the readings at excitation and emission wavelengths of 530 and 620 nm for each well. The percentage cytotoxicity of compounds was calculated using the following formula:
(§3) Where ATC= Absorbance of treated cells and AC= Absorbance of control. Erlotinib was used as positive control in the assay. […]

HER-2 [2] = molecular target: T1, HER-2 (Homo sapiens, UniProt P04626); test: HER-2 inhibitory assay (ADP-Glo kinase assay); format: biochemical; settings: read-out: HER-2 inhibition IC50 ± SEM
T1 construct: purchased Abcam ab60866
Experimental: The results are presented as IC50 values. Lapatinib served as the reference medication. Appendix A describes more experimental details.
Lapatinib functioned as the reference drug. […]
4.2.5. HER-2 inhibitory assay
The ADP-Glo™ Kinase Assay was used for kinase activity detection, related kinases information:
HER-2 (ab60866, Abcam), with a concentration of 100 ng/mL. Target compounds were dissolved in DMSO to obtain drug solutions with different concentrations, and the compound concentrations in the final reaction system (100 μL) were 1 nM, 20 nM, 40 nM, 80 nM, and 100 nM, respectively. 10μL of the solution containing compounds was transferred to a 96-well plate, then added 40 μL of 1 × kinase buffer (50 mM HEPES, pH 7.5) to each well, and mixed the mixture in the 96-well plate on a shaker for 10 min. Next, added 25 μL of ADP-Glo™ reagent to the above wells, mixed and incubated for another 40 min. Distributed 10 μL kinase detection reagent to the reaction and incubated for 30 min. Finally, the full-wavelength microplate reader was used to record the OD value.
4.3. Statistical analysis
Computerized Prism 5 program was used to statistically analyzed data using one-way ANOVA test followed by Tukey’s as post ANOVA for multiple comparison at P ≤.05. Data were presented as […]

[3] = Cell viability assay (MTT) on MCF-10A normal cell line; format: cell-based; settings: human, MCF-10A mammary gland epithelial normal cells, MCF-10A cells, 50 μM of each compound, four days of incubation
Experimental: The human mammary gland epithelial (MCF-10A) normal cell line was used to examine the viability effects of new derivatives 5a–l using the MTT test.[33,34] Refer to Appendix A for more details.
The human mammary gland epithelium (MCF-10A) normal cell line was employed to evaluate the viability effects of novel derivatives 5a–l. The cell viability of 5a–l was assessed via the MTT assay following four days of incubation with 50 μM of each compound on MCF-10A cells.[33,34] […]
4.2. Biological evaluation
4.2.1 Cell Viability assay (MTT assay)
MTT assay was performed to investigate the effect of the synthesized compounds on mammary epithelial cells (MCF-10A). The cells were propagated in medium consisting of Ham's F-12 medium/ Dulbecco's modified Eagle's medium (DMEM) (1:1) supplemented with 10% foetal calf serum, 2 mM glutamine, insulin (10 μg/mL), hydrocortisone (500 ng/mL) and epidermal growth factor (20 ng/mL). Trypsin ethylenediamine tetra acetic acid (EDTA) was used to passage the cells after every 2-3 days. 96-well flat-bottomed cell culture plates were used to seed the cells at a density of 10^4 cells mL-1. The medium was aspirated from all the wells of culture plates after 24 h followed by the addition of synthesized compounds (in 200 μL medium to yield a final concentration of 0.1% (v/v) dimethyl sulfoxide) into individual wells of the plates. Four wells were designated to a single compound. The plates were allowed to incubate at 37°C for 96 h. Afterwards, the medium was aspirated and 3-[4,5-dimethylthiazol-2-yl]-2,5-diphenyltetrazolium bromide (MTT) (0.4 mg/mL) in medium was added to each well and subsequently incubated for 3 h. The medium was aspirated and 150 μL dimethyl sulfoxide (DMSO) was added to each well. The plates were vortexed followed by the measurement of absorbance at 540 nm on a microplate reader. The results were presented as inhibition (%) of proliferation in contrast to controls comprising 0.1% DMSO. […]

breast cancer (MCF-7) = test: Antiproliferative assay, MCF-7; format: cell-based, human; settings: Homo sapiens, MCF7; MCF-7 breast cancer cell line; read-out: Antiproliferative activity IC50 ± SEM (nM) MCF-7
Experimental: as §1, §2, §3

BRAF^V600E [4] = test: BRAF^V600E inhibitory assay; settings: ratio of BRAF^V600E IC50 versus erlotinib
BRAF^V600E [5] = molecular target: BRAF^V600E (Mus musculus, UniProt P28028, V585E); test: BRAF^V600E inhibitory assay
colon cancer (HT-29) = test: Antiproliferative assay, HT-29; format: cell-based; settings: Homo sapiens; HT-29 colon cancer cell line; read-out: Antiproliferative activity IC50 ± SEM (nM) HT-29
Experimental: as §1, §2, §3

[6] = test system: four human cancer cell lines (A-549, MCF-7, Panc-1, HT-29); test: Antiproliferative assay, average over four cancer cell lines (GI50); format: cell-based; settings: for GI50: GI50 = mean IC50 against the four cancer cell lines
Experimental: as §1
To explore the antiproliferative potential of compounds propidium iodide fluorescence assay was performed using different cell lines such as Panc-1 (pancreas cancer cell line), MCF-7 (breast cancer […]
calculate the total nuclear DNA, a fluorescent dye (propidium iodide, PI) is used which can attach to the DNA, thus offering a quick and precise technique. PI cannot pass through the cell membrane and its signal intensity can be considered as directly proportional to quantity of cellular DNA. Cells whose cell membranes are damaged or have changed permeability are counted as dead ones. The assay was performed by seeding the cells of different cell lines at a density of 3000-7500 cells/well (in 200μl […]
atmospheric conditions. The medium was removed; the compounds were added to the plates at 10 μM concentrations (in 0.1% DMSO) in triplicates, followed by incubation for 48h. DMSO (0.1%) was used as control. After incubation, medium was removed followed by the addition of PI (25 μl, 50μg/mL in water/medium) to each well of the plates. At -80 °C, the plates were allowed to freeze for 24 h, followed by thawing at 25 °C. A fluorometer (Polar-Star BMG Tech) was used to record the readings at excitation and emission wavelengths of 530 and 620 nm for each well. The percentage cytotoxicity of compounds was calculated using the following formula:
Where ATC= Absorbance of treated cells and AC= Absorbance of control. […]
positive control in the assay. […]

EGFR [7] = molecular target: T2, EGFR (Homo sapiens, UniProt P00533); test: EGFR-TK inhibitory assay
lung cancer (A-549) = test: Antiproliferative assay, A-549; format: cell-based; settings: Homo sapiens, A549; A-549 lung cancer cell line; read-out: Antiproliferative activity IC50 ± SEM (nM) A-549
Experimental: as §1, §2, §3
(1 picture or pasted object on this page, not shown here)

BRAF^V600E [8] = test system: BRAF^V600E; set-up: method as in PMID 33279248; settings: earlier study of the authors; cited from earlier work
BRAF^V600E [9] = test system: BRAF^V600E; set-up: method as in doi:10.1016/j.molstruc.2023.136953; settings: earlier study of the authors; cited from earlier work
[10] = test system: four human cancer cell lines; set-up: method as in doi:10.1016/j.molstruc.2023.136953; settings: earlier study of the authors; read-out: GI50 against the four cancer cell lines; cited from earlier work
EGFR [11] = molecular target: T2, EGFR; set-up: 645–1186; His6 (N); made in house; host or cells: Sf-9 insect cells (baculovirus; pBlueBacHis2B / pFASTBacHTc); method as in doi:10.1016/j.molstruc.2023.136953; settings: earlier study of the authors; cited from earlier work
EGFR [12] = molecular target: T2, EGFR; set-up: 645–1186; His6 (N); made in house; host or cells: Sf-9 insect cells (baculovirus; pBlueBacHis2B / pFASTBacHTc); method as in PMID 39434991; settings: earlier study of the authors; read-out: EGFR inhibitory IC50; cited from earlier work
HER-2 [13] = molecular target: T1, HER-2; set-up: method as in PMID 39434991; settings: earlier study of the authors; read-out: HER-2 inhibitory IC50; cited from earlier work

T2 sequence (P00533 669-1210): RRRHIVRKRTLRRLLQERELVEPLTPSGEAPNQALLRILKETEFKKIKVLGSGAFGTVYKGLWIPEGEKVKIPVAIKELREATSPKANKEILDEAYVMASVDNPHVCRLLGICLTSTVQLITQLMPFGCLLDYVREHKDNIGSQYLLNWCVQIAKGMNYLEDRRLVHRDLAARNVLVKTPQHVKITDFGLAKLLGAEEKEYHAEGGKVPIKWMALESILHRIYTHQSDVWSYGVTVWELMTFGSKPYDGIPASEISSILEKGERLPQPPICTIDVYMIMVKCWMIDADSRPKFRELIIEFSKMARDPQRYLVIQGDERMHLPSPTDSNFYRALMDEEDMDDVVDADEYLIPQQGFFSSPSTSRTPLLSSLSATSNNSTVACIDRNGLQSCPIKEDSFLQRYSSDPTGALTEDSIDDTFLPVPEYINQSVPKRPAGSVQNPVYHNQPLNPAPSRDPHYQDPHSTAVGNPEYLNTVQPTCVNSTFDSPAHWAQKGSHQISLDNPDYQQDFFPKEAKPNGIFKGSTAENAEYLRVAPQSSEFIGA
T1 sequence (P04626 23-1255): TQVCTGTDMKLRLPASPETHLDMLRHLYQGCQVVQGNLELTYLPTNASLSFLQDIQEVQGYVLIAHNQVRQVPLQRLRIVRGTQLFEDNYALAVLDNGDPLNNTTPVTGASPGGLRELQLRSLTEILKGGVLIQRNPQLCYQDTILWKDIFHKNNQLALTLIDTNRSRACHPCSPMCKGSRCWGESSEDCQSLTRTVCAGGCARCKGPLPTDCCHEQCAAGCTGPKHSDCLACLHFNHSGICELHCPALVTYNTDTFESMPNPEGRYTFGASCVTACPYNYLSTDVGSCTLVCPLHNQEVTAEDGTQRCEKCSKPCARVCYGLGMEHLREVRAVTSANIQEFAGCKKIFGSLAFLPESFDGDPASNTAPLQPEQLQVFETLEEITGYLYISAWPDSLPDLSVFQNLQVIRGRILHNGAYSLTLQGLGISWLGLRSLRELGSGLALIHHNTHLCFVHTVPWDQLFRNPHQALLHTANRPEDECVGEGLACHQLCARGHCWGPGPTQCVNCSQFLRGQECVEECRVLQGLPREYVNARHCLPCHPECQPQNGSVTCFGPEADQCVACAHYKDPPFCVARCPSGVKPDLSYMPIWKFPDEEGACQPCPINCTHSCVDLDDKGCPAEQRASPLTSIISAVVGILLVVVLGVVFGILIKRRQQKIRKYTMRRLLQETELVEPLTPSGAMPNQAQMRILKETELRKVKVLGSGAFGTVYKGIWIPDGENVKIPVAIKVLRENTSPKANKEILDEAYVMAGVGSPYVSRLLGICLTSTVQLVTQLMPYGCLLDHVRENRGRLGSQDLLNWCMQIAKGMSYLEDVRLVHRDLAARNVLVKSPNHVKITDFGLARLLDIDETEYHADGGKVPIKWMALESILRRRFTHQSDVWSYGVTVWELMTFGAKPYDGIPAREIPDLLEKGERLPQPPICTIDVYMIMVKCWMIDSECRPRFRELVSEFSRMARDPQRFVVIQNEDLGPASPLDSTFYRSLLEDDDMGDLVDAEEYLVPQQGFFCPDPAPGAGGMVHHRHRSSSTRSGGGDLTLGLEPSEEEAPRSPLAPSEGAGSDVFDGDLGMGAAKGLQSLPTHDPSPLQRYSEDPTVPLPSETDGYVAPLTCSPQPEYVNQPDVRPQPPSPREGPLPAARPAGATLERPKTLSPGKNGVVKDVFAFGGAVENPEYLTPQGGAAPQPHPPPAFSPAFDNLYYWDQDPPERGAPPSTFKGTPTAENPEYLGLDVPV
Sequence of BRAF^V600E (P28028 whole entry V585E): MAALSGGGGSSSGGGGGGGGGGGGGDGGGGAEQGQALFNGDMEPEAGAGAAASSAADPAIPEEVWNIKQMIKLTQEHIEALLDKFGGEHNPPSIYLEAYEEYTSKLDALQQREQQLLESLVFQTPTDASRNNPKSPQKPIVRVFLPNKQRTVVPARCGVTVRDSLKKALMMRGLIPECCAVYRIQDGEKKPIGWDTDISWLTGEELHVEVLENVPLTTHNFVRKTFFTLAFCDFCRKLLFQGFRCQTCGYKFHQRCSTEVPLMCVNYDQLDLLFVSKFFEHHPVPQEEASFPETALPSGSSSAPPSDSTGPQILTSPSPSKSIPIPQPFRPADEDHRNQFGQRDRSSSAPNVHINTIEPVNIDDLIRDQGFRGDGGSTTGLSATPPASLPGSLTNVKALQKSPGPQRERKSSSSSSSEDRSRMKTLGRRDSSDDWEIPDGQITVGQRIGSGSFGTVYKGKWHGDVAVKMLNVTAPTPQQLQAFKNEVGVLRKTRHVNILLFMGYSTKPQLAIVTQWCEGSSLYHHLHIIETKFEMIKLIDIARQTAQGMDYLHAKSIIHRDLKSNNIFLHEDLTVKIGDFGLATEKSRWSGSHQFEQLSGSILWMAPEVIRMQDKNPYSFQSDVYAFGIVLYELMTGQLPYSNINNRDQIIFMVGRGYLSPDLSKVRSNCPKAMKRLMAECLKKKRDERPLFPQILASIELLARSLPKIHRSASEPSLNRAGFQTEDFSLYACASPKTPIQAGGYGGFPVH
Sequence of BRAF^V600E (Mus musculus, UniProt P28028, V585E) (P28028 whole entry V585E): as above

Compound	IC50 [1]	IC50 (HER-2 [2])	viability at 4 days, 50 µM [3]	IC50 (breast cancer (MCF-7))	Fold reduced potency compared to erlotinib, BRAF^V600E (BRAF^V600E [4])	IC50 (BRAF^V600E [5])	IC50 (colon cancer (HT-29))	GI50 ([6]; Homo sapiens)	IC50 (EGFR [7])	IC50 (lung cancer (A-549))	GI50 [10]	other results
COc1ccc(C2C(C#N)=C(N)Oc3c2c(=O)n(C)c2ccccc32)cc1 (stereo not drawn) [Compound 5i, 2-Amino-6-methyl-4-(4-methoxylphenyl)-5-oxo-5,6-dihydro-4H-pyrano[3,2-c]quinoline-3-carbonitrile]	31 ± 2 nM	0.031 ± 0.002 µM	90%	27 ± 2 nM	1.3 fold	0.074 ± 0.004 µM	33 ± 2 nM	0.03 µM	0.078 ± 0.004 µM	30 ± 2 nM	–	–
C#Cc1cccc(Nc2ncnc3cc(OCCOC)c(OCCOC)cc23)c1 [Erlotinib, reference compound]	30 ± 3 nM	–	–	40 ± 3 nM	–	–	30 ± 3 nM	–	–	30 ± 3 nM	–	IC50 (BRAF^V600E [8]): […]; IC50 (BRAF^V600E [9]): […]
COc1ccc(C2C(C#N)=C(N)Oc3c2c(=O)[nH]c2ccc(OC)cc32)cc1 (stereo not drawn) [Compound 5h, 2-Amino-9-methoxyl-4-(4-methoxylphenyl)-5-oxo-5,6-dihydro-4H-pyrano[3,2-c]quinoline-3-carbonitrile]	29 ± 2 nM	0.023 ± 0.001 µM	91%	26 ± 2 nM	1.1 fold	0.067 ± 0.003 µM	29 ± 2 nM	0.026 µM	0.075 ± 0.004 µM	28 ± 2 nM	–	GI50 [6]: 0.028 µM; Times more effective than erlotinib (GI50) ([6]; ratio of GI50 versus erlotinib, four cancer cell lines): 1.25 fold
CC(=NO)c1ccc(NC(=O)c2cc(-c3ccc(S(C)(=O)=O)cc3)nc3ccccc23)cc1 [Compound II]	–	–	–	–	–	–	–	–	–	–	1.2 µM	IC50 (EGFR [11]): 0.105 ± 0.01 µM
COc1cccc2c1C(=O)c1c(O)c3c(c(O)c1C2=O)C[C@@](O)(C(=O)CO)C[C@@H]3O[C@H]1C[C@H](N)[C@H](O)[C@H](C)O1 [doxorubicin]	–	–	–	–	–	–	–	–	–	–	1.4 µM	–
O=c1[nH]c2ccccc2c(O)c1/C=N/c1ccc(NS(=O)(=O)c2ncccn2)cc1 [Compound I]	–	–	–	–	–	–	–	–	–	–	–	IC50 (EGFR [12]): 0.071 µM; IC50 (HER-2 [13]): 0.031 µM
